# According to PMC9386376, “Discovery of spirooxindole-derived small-molecule compounds as novel HDAC/MDM2 dual inhibitors and investigation of their anticancer activity” (Frontiers in Oncology, 2022):
# “Also recorded” adds a separate entry of the source.
# Assays:
# MCF-7 cells = assay: Annexin V-FITC/PI double staining, flow cytometry; type: cell-based, human; conditions: MCF-7, 5.0 μM, 24 h
# Description: It was reported that the inactivation of HDAC and/or MDM2 could increase the percentage of apoptosis cells ([85]–[87]). Therefore, three methods were applied to assess the effect of MDM2-HDAC dual inhibitor 11b on the apoptosis of MCF-7 cells. […] Subsequently, the annexin V-FITC/propidium iodide (PI) double staining method was carried out to quantitatively detect the effect of compound 11b on cell apoptosis (Figure 9B).
# Cells were collected after incubation, then fixed with 75% ice-cold ethanol and stored at -20°C for 1 h. The cells were then harvested with 0.25% trypsin (without EDTA) and centrifuged at 2000 rpm for 5min. Then, the harvested cells were washed with ice-cold PBS twice and resuspended in 500 μL of 1× binding buffer, which was then added to 5 μL of annexin V-FITC and incubated at room temperature in the dark for 15 min. After adding 10 μL of propidium iodide (PI), the cells were incubated at room temperature in the dark. After another 15 min incubation, the cells were collected and analyzed by flow cytometry.
# HDAC10 = target: T1, HDAC10 (Homo sapiens, UniProt Q969S8); assay: HDAC isoform selectivity, HDAC10; type: biochemical; conditions: HDAC subtype panel
# T1 sequence (Q969S8 1-669): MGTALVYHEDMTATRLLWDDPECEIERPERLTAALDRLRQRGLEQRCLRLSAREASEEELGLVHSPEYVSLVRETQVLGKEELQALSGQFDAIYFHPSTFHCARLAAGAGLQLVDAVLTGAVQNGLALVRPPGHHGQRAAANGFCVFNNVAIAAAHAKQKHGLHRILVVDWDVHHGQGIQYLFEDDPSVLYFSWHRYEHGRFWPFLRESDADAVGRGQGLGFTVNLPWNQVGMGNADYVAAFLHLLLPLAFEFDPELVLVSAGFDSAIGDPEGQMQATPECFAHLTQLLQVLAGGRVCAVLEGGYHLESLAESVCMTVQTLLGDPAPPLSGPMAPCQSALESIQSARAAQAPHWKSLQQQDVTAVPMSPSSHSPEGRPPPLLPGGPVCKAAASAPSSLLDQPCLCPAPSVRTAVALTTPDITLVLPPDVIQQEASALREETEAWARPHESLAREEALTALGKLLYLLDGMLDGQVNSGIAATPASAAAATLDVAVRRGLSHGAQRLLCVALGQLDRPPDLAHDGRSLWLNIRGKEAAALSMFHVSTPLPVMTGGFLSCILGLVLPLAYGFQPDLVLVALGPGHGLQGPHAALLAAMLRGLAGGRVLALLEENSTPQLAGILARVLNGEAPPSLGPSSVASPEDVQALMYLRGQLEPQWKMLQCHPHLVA
# Ac-H4 in MCF-7 cells = assay: Western blot, acetylation of H4; type: cell-based, human; conditions: MCF-7, 24 h
# Description: The cells were collected and washed with cold PBS twice, then added the protease and phosphatase inhibitors contained lysis buffer. Total cell lysates were prepared in lysis RIPA buffer (Invitrogen, CA, USA) on ice for 30 min, followed by centrifugation at 12000 rpm for 10 min at 4°C. After collecting supernatant, protein concentration was determined by a BCA protein assay. The total proteins were loaded into the 10%-15% SDS-PAGE gel and separated by sodium dodecyl sulfate polyacrylamide gel electrophoresis (PAGE). After electrophoresis, the protein was transferred to the PVDF membranes and rinsed three times in PBST buffer for 10 min each time, then sealed with 5% BSA Buffer for 1h. The membranes were incubated at 4°C for 24 h with primary antibodies and washed with TBST three times. Then incubated at room temperature for 2 h with secondary antibodies (1:10,000). The incubated PVDF membranes were taken out and rinsed with TBST three times. The protein bands were visualized through enhanced chemiluminescence (ECL) WB substrate (Millipore, MA, USA) and analyzed by ChemiScope. The antibodies including p53, MDM2, H4, and GAPDH were purchased from Abcam (Cambridge, MA, USA).
# HDAC3 = HDAC3 (Homo sapiens, UniProt O15379); assay: HDAC isoform selectivity, HDAC3; type: biochemical; conditions: HDAC subtype panel
# Sequence of HDAC3 (O15379 whole entry, canonical isoform): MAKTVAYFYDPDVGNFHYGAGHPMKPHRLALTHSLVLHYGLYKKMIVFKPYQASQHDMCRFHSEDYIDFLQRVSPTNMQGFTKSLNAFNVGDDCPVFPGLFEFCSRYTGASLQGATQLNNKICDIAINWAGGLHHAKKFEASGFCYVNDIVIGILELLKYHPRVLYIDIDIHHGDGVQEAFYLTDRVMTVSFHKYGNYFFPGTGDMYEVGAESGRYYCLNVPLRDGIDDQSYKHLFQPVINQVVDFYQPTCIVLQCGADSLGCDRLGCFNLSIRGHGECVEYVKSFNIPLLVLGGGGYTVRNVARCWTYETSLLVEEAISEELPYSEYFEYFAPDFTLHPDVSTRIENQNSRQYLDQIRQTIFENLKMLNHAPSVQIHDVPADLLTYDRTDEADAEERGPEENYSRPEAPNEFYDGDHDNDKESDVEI
# Sequence of HDAC3 (Q9Y618 395-489 partner limits assumed): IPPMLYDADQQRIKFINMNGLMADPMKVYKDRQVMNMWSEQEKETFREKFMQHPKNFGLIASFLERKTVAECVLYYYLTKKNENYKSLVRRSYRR
# HDAC6 = target: T2, HDAC6 (Homo sapiens, UniProt Q9UBN7); assay: HDAC isoform selectivity, HDAC6; type: biochemical; conditions: HDAC subtype panel
# T2 sequence (Q9UBN7 1-1215): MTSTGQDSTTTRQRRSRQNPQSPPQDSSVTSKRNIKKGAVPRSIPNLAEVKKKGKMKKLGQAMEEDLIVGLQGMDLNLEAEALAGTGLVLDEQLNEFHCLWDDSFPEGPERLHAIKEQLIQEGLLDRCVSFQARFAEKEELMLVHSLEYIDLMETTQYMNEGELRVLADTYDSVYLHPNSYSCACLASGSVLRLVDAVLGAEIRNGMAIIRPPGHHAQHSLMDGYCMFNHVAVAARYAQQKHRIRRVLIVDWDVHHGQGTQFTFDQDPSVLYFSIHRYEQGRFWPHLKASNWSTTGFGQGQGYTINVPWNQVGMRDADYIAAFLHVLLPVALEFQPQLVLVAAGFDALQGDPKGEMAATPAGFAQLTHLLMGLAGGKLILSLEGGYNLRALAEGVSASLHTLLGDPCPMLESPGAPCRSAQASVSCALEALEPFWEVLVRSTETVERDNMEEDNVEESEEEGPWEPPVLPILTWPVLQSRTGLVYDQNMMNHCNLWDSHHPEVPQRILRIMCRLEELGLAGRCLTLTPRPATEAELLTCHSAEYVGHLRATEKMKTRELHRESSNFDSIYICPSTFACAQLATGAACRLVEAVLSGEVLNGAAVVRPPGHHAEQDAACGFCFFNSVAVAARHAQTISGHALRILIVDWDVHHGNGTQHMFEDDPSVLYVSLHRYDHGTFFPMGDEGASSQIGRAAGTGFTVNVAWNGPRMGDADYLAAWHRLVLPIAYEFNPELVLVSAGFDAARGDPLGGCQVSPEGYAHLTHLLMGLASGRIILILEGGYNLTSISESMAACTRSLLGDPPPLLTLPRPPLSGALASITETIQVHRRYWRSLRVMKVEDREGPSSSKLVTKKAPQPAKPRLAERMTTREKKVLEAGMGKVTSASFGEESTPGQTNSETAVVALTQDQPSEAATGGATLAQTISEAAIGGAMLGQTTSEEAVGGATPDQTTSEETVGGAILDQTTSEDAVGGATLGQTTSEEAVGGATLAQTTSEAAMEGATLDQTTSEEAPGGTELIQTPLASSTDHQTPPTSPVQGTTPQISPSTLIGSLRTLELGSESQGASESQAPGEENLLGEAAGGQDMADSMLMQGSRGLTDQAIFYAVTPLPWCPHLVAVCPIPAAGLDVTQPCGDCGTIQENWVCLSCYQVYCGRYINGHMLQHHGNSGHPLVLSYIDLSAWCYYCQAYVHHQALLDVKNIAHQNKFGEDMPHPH
# HDAC2 = HDAC2 (Homo sapiens, UniProt Q92769); assay: HDAC isoform selectivity, HDAC2; type: biochemical; conditions: HDAC subtype panel
# Sequence of HDAC2 (Q92769 whole entry, canonical isoform): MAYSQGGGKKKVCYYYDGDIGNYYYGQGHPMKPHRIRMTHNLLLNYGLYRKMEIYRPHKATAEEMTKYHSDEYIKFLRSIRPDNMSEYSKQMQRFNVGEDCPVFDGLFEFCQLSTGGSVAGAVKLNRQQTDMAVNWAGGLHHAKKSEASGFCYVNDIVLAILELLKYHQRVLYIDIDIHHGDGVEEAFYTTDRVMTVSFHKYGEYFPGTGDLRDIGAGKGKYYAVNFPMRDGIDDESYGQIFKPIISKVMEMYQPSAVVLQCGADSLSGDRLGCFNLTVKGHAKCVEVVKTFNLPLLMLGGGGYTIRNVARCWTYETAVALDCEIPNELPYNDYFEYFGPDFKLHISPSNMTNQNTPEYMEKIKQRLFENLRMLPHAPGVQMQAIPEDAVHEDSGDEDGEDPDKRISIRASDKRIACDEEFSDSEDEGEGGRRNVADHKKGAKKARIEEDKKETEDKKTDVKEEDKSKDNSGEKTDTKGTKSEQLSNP
smiles,measurement,setting,value
"O=C(CCCCCCC(=O)N1CCC(C(=O)Nc2ccc([C@@H]3[C@H]4CSCN4[C@]4(C(=O)Nc5cc(Cl)ccc54)[C@H]3C(=O)c3ccccc3)cc2)CC1)NO [compound 11b, N-(4-((3R,6'S,7'R,7a'S)-6'-benzoyl-6-chloro-2-oxo-1',6',7',7a'-tetrahydro-3'H-spiro[indoline-3,5'-pyrrolo[1,2-c]thiazol]-7'-yl)phenyl)-1-(8-(hydroxyamino)-8-oxooctanoyl)piperidine-4-carboxamide]",apoptotic cells,MCF-7 cells,37.36%
same,IC50,HDAC10,1490 ± 37 nM
same,"acetylation level of H4 (Ac-H4, western blot)",Ac-H4 in MCF-7 cells,up-regulating the expression of p53 and Ac-H4; also recorded: increased the expression of p53 and Ac-H4; also recorded: increased acetylation level of H4
same,IC50,HDAC3,115 ± 9 nM
same,IC50,HDAC6,120 ± 26 nM
same,IC50,HDAC2,64 ± 4 nM
